Values quoted from earlier work in patent publication US9278076B2, “Chronotherapeutic dosage forms” (Endo Pharmaceuticals Inc., priority 2003, dated 2016).

Conditions: glucocorticoid equivalence chart

| Compound | Approximate Equivalent Dose |
| --- | --- |
| C[C@]12CCC(=O)C=C1CC[C@@H]1[C@@H]2C(=O)C[C@@]2(C)[C@H]1CC[C@]2(O)C(=O)CO [Cortisone] | 25 mg |
| C[C@]12CCC(=O)C=C1CC[C@@H]1[C@@H]2[C@@H](O)C[C@@]2(C)[C@H]1CC[C@]2(O)C(=O)CO [Hydrocortisone] | 20 mg |
| C[C@]12C=CC(=O)C=C1CC[C@@H]1[C@@H]2[C@@H](O)C[C@@]2(C)[C@H]1CC[C@]2(O)C(=O)CO [Prednisolone] | 5 mg |
| C[C@]12C=CC(=O)C=C1CC[C@H]1[C@@H]3C[C@@H](O)[C@](O)(C(=O)CO)[C@@]3(C)C[C@H](O)[C@@]12F [Triamcinolone] | 4 mg |
